Measurements from the NIST ThermoML archive (doi:10.1021/je800048f).
± gives the expanded uncertainty stated by the source.

Conditions: 298.15 K; 101.33 kPa; Liquid

| SMILES | mass density |
| --- | --- |
| CCCCCl [1-chlorobutane] | 880.69 ± 0.61 kg/m3 |
| CC(C)CO [2-methyl-1-propanol] | 797.77 ± 0.62 kg/m3 |
| CC(C)(C)O [2-methylpropan-2-ol] | 780.78 ± 0.65 kg/m3 |
| CCCCCC [hexane] | 655.07 ± 0.98 kg/m3 |

Same assay, conditions: 298.15 K; 101.33 kPa; Liquid; Capillary tube (Ostwald / Ubbelohde) method

| SMILES | viscosity |
| --- | --- |
| CCCCCl [1-chlorobutane] | 0.4235 ± 0.0054 mPa·s |
| CC(C)CO [2-methyl-1-propanol] | 3.353 ± 0.027 mPa·s |
| CC(C)(C)O [2-methylpropan-2-ol] | 4.384 ± 0.038 mPa·s |
| CCCCCC [hexane] | 0.2949 ± 0.0048 mPa·s |
